Results reported in PMC11839646, “HPK1 kinase inhibitor: a sufficient approach to target HPK1 to modulate T cell activation in cancer immunotherapy compared with degraders” (Frontiers in Immunology, 2025).
Where two headings read alike, the source gives them in different places.

Key:
HPK1 [1] = biological target: T1, HPK1 (Homo sapiens, UniProt Q92918); experiment: HPK1 degradation in Jurkat cells (intracellular staining, flow cytometry); type: cell-based; parameters: Compound 2 degraded HPK1 in CD4^+ and CD8^+ T cells in a concentration-dependent manner; host or cells: human PBMCs (CD4+ and CD8+ T cells) from healthy donors; details: for HPK1 degradation at high concentrations: 24 h treatment, ≥1,000 nM
T1 sequence (Q92918 whole entry): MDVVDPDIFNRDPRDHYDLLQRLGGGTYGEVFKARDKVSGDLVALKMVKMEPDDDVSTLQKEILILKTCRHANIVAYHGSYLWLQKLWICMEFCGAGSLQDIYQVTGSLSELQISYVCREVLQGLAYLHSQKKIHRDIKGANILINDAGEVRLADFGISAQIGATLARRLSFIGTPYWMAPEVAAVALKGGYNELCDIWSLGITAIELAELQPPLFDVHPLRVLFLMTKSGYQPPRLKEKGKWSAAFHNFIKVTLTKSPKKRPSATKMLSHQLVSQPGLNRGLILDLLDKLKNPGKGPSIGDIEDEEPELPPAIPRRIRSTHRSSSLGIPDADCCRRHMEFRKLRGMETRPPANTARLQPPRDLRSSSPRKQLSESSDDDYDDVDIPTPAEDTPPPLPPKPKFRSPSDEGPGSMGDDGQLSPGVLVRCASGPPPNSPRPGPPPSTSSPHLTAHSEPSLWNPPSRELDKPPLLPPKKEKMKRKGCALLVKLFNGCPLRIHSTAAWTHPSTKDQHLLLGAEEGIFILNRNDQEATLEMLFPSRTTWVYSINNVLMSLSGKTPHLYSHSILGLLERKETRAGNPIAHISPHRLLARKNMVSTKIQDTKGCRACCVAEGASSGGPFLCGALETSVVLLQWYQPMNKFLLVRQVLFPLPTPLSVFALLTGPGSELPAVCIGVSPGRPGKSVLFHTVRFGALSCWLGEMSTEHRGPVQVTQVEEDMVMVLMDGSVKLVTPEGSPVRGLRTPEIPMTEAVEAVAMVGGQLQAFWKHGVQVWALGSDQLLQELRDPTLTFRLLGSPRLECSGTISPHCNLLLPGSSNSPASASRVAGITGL
Method: (§1) Jurkat cells (ATCC, Manassas, VA, USA) and human peripheral blood mononuclear cells (PBMCs) were cultured in RPMI-1640 medium (Thermo Fisher Scientific, Waltham, MA, USA) supplemented with 10% heat-inactivated fetal bovine serum (Thermo Fisher) and 1% penicillin–streptomycin (Thermo Fisher Scientific) at 37°C in a humidified incubator with 5% CO2. The density of Jurkat cells was adjusted to 1 × 10^6/mL 24 h before conducting the experiment. Cryopreserved human PBMCs were purchased from Oribiotech (Shanghai, China); they were freshly thawed and cultured overnight prior to performing the experiment.
(§2) Jurkat cells or human PBMCs were pretreated in triplicates or quadruplicates with dimethyl sulfoxide or compounds for 24 h. For p-SLP76-S376 analysis, the cells were activated for 30 min with OKT3. For granzyme B and perforin analysis of human PBMCs, ultra-high binding 96-well plates (Corning Inc., Corning, NY, USA) were precoated with OKT3 overnight at 4°C. Human PBMCs were pretreated in quadruplicates with dimethyl sulfoxide or compounds for 24 h. The cells were then activated for another 24 h with precoated OKT3, followed by 2 h treatment with Protein Transport Inhibitor Cocktail (Thermo Fisher). The stimulated cells were fixed with BD Phosflow™ Lyse/Fix buffer (BD Biosciences, San Diego, CA, USA), washed and permeabilized with BD Perm Buffer III (BD Biosciences), and subsequently stained with a fluorescence-conjugated antibody against HPK1 (E1C3L; Cell Signaling Technology), p-SLP76-S376 (E3G9U; Cell Signaling Technology), granzyme B (GB11, BioLegend, San Diego, CA, USA), perforin (dG9, BioLegend) and anti-human CD3 (SK7, BioLegend), CD4 (SK3, BioLegend) and CD8 (SK1, BioLegend) for primary T cells. This was followed by data acquisition and analysis with the BD FACSymphony™ A1 Cell Analyzer (BD Biosciences).

[2] = tested on: phosphorylation of SLP76-S376; experiment: TCR-induced p-SLP76-S376 in Jurkat cells after OKT3 stimulation (flow cytometry); type: cell-based; details: Homo sapiens; Jurkat cells pretreated 24 h, OKT3 stimulation 30 min
Method: as §1, §2

HPK1 [3] = biological target: T1, HPK1; experiment: HPK1 degradation in CD4+ and CD8+ T cells of human PBMCs (flow cytometry); type: cell-based; parameters: Compound 2 degraded HPK1 in CD4^+ and CD8^+ T cells in a concentration-dependent manner; host or cells: human PBMCs (CD4+ and CD8+ T cells) from healthy donors; details: for HPK1 degradation at 1,000 nM / HPK1 degradation at high concentrations: CD4+ and CD8+ T cells in human PBMCs; for HPK1 degradation at 1,000 nM: 24 h, 1,000 nM; for HPK1 degradation at high concentrations: 24 h, ≥3,000 nM; for DC50: 24 h treatment, read-out: HPK1 degradation EC50
Method: as §1, §2

[4] = tested on: phosphorylation of SLP76-S376; experiment: TCR-induced p-SLP76-S376 in CD4+ and CD8+ T cells of human PBMCs (flow cytometry); type: cell-based; details: for TCR-induced phosphorylation on SLP76-S376: 24 h pretreatment
Method: as §1, §2

HPK1 [5] = biological target: T1, HPK1; experiment: Western blotting of TCR-induced signaling in human PBMCs after TCR crosslinking; type: cell-based; parameters: Compound 2 degraded HPK1 in CD4^+ and CD8^+ T cells in a concentration-dependent manner; host or cells: human PBMCs (CD4+ and CD8+ T cells) from healthy donors
Method: as §1
(§3) Jurkat cells were activated by anti-human CD3 (OKT3; 10 μg/mL, Thermo Fisher Scientific), while human peripheral blood cells were activated through TCR crosslinking by biotinylated OKT3 and streptavidin (7.5 μg/mL; Thermo Fisher Scientific). The cells were lysed at various time points post stimulation, and the lysate was denatured. The obtained samples were subjected to electrophoresis, and the separated proteins were electro-transferred onto a nitrocellulose membrane. Thereafter, the membranes were incubated with antibodies against HPK1 (E1C3L), phosphorylated SLP76-S376 (p-SLP76-S376; D7S1K), SLP76 (D1R1A), p-ERK1/2-T202/Y204 (D13.14.4E), p-PLCγ1-Y783 (polyclonal), PLCγ1 (D9H10), and glyceraldehyde-3-phosphate dehydrogenase (GAPDH; D4C6R). All antibodies used for immunoblotting were purchased from Cell Signaling Technology (Danvers, MA, USA).

HPK1 [6] = biological target: T1, HPK1; experiment: Western blotting of TCR-induced signaling in HKO-EV, HKO-HPK1.WT and HKO-HPK1.K46E Jurkat cells; type: cell-based; parameters: expressed in transfected cells; host or cells: HPK1-knockout Jurkat single clone (EdiGene), lentiviral transduction, blasticidin-selected pool; details: compound pretreatment, OKT3 stimulation; for SLP76-S376 phosphorylation (Western blot): HKO-HPK1.WT Jurkat cells; for ERK1/2 phosphorylation (Western blot): HKO-HPK1.WT vs HKO-EV and HKO-HPK1.K46E Jurkat cells
Text: The Jurkat line with a homozygous knockout of HPK1 (HKO) single clone was purchased from EdiGene (Beijing, China). HKO-EV (HKO empty vector control), HKO-HPK1.WT (HKO overexpressing wildtype HPK1), and HKO-HPK1.K46E (HKO overexpressing kinase-dead HPK1) Jurkat pools were generated by lenti-vector transduction. In brief, the coding sequences of different HPK1 mutants were inserted into a FG12-BSD plasmid with the human phosphoglycerate kinase (hPGK) promoter (GenScript, Nanjing, China). Thereafter, 293T cells (ATCC) were transfected with those plasmids together with lentivirus packing plasmids pMD2.G and psPAX2. The culture medium containing virus was collected and used to infect HKO cells. Blasticidin 10 µg/mL (InvivoGen, San Diego, CA, USA) was used for the selection of infected cells. HPK1-knockin Jurkat cells (HPK1 K46*) and kinase-inactivated HPK1-knockin Jurkat cells (HPK1 K46E) were produced by introducing a Lys46Ter mutation or a Lys46Glu mutation to the HPK1 gene, respectively.
as §3

[7] = tested on: CD8+ T cells of human PBMCs; experiment: Granzyme B levels in CD8+ T cells of human PBMCs after OKT3 stimulation; type: cell-based; details: human PBMCs pretreated 24 h, OKT3 stimulation 24 h
Method: as §2

Jurkat cells = experiment: IL-2 production by Jurkat cells stimulated with immobilized OKT3; type: cell-based, human; details: Jurkat cells pretreated 24 h, immobilized OKT3 24 h
Method: as §1
Jurkat cells were seeded in triplicates into those plates for stimulation and incubated for 24 h. Alternatively, Jurkat cells were pretreated with various concentrations of the aforementioned compounds for 24 h prior to stimulation with aforementioned immobilized OKT3. For cytokine analysis of human PBMCs, the cells were seeded into U-bottomed 96-well plates (Corning Inc.) and treated with the compounds for 24 h prior to stimulation. Next, the cells were stimulated by co-culture with HEK293/OS8/PD-L1 cells in the U-bottomed 96-well plates for another 24 h. HEK293/OS8/PD-L1 is a HEK293 cell line edited to stably co-express human PD-L1 (programmed death ligand 1) and single chain fragment variable (scFv) of OKT3 fused with transmembrane and cytoplasmic domains of murine CD8α, as previously described ([21]). Interleukin 2 (IL-2) and interferon-gamma (IFN-γ) in the supernatant were detected using the HTRF Human IL-2 Detection Kit and AlphaLISA Biotin-Free Human IFNγ Detection Kit (both obtained from Revvity, Waltham, MA, USA) according to the instructions provided by the manufacturer. Data were acquired with PHERAstar FSX (BMG LABTECH Inc., Cary, NC, USA).

HepG2 cells = experiment: Real-time cell mediated cytotoxicity assay (xCELLigence RTCA), PBMC killing of HepG2; type: cell-based; details: PBMC:HepG2 5:1, compared to DMSO-pretreated PBMCs, up to 6 days post TCR stimulation
Method: For in vitro HepG2 cell killing, human PBMCs were pretreated in quadruplicates with dimethyl sulfoxide or compounds for 24 h, followed by stimulation by OKT3 for another 24 h. HepG2 cells were seeded at 2 × 10^4/well in a RTCA 96-well-E plate (Agilent Technologies, Sana Clara, CA, USA). 24 h after HepG2 seeding, the stimulated PBMCs were added at a PBMC: HepG2 cells ratio of 5:1. Target cell death was monitored using xCELLigence RTCA MP instrument (Agilent Technologies).

human PBMCs = experiment: IL-2 and IFN-γ production by human PBMCs co-cultured with HEK293/OS8/PD-L1; type: cell-based; details: human PBMCs pretreated 24 h, co-culture with HEK293/OS8/PD-L1 24 h
Method: as §1
Jurkat cells were seeded in triplicates into those plates for stimulation and incubated for 24 h. Alternatively, Jurkat cells were pretreated with various concentrations of the aforementioned compounds for 24 h prior to stimulation with aforementioned immobilized OKT3. For cytokine analysis of human PBMCs, the cells were seeded into U-bottomed 96-well plates (Corning Inc.) and treated with the compounds for 24 h prior to stimulation. […] Interleukin 2 (IL-2) and interferon-gamma (IFN-γ) in the supernatant were detected using the HTRF Human IL-2 Detection Kit and AlphaLISA Biotin-Free Human IFNγ Detection Kit (both obtained from Revvity, Waltham, MA, USA) according to the instructions provided by the manufacturer. […]

[8] = 300 nM and 1,000 nM pretreatment

| SMILES | HPK1 degradation at high concentrations (HPK1 [1]) | IC50 [2] | HPK1 degradation at 1,000 nM (HPK1 [3]) | HPK1 degradation at high concentrations (HPK1 [3]) | TCR-induced phosphorylation on SLP76-S376 [4] | HPK1 levels (Western blot) (HPK1 [5]; [8]) | SLP76-S376 phosphorylation (Western blot) (HPK1 [5]; [8]) | SLP76-S376 phosphorylation (Western blot) (HPK1 [6]) | ERK1/2 phosphorylation (Western blot) (HPK1 [6]) | Granzyme B levels in CD8+ T cells [7] | IL-2 production EC50 relative to Compound 2 (Jurkat cells) | IL-2 production, maximal level (Jurkat cells) | Cytotoxicity of pretreated PBMCs against HepG2 cells (HepG2 cells) | other results |
| --- | --- | --- | --- | --- | --- | --- | --- | --- | --- | --- | --- | --- | --- | --- |
| Cc1cc(-c2cnc3[nH]cc(-c4ccc(C(=O)N(C)C)cc4)c3c2)cc2c1CN(C)CC2 [Compound 1, 4-(5-(2,8-dimethyl-1,2,3,4-tetrahydroisoquinolin-6-yl)-1H-pyrrolo[2,3-b]pyridin-3-yl)-N,N-dimethylbenzamide] | resulted in the degradation of HPK1 | 120 nM | did not significantly degrade HPK1 | limited HPK1 degradation | effectively reduced | without significantly affecting HPK1 levels | reduced or almost completely attenuated SLP76-S376 phosphorylation | attenuated SLP76-S376 phosphorylation | enhanced ERK1/2 phosphorylation only in HKO-HPK1.WT Jurkat cells | enhanced granzyme B levels | higher | comparable with that induced by Compound 2 | – | – |
| Cc1cc(-c2cnc3[nH]cc(-c4ccc(C(=O)N(C)C)cc4)c3c2)cc2c1CN(CCC(=O)N1CCN(c3ccc(N4CCC(=O)NC4=O)cc3)CC1)CC2 [Compound 2, 4-(5-(2-(3-(4-(4-(2,4-dioxotetrahydropyrimidin-1(2H)-yl)phenyl)piperazin-1-yl)-3-oxopropyl)-8-methyl-1,2,3,4-tetrahydroisoquinolin-6-yl)-1H-pyrrolo[2,3-b]pyridin-3-yl)-N,N-dimethylbenzamide] | – | ~20 nM | – | – | effectively reduced | – | – | attenuated SLP76-S376 phosphorylation | enhanced ERK1/2 phosphorylation only in HKO-HPK1.WT Jurkat cells | enhanced granzyme B levels | – | – | did not exhibited stronger cytotoxicity against HepG2 cells | HPK1 degradation, time course (HPK1 [1]; 1 μM, within 24 h): effectively degraded HPK1; DC50 (HPK1 [3]; CD4+ T cells in human PBMCs): 11.5 nM; DC50 (HPK1 [3]; CD8+ T cells in human PBMCs): 26 nM; IC50 for SLP76-S376 phosphorylation relative to the other two compounds [4]: lower in both populations; HPK1 levels (Western blot) (HPK1 [5]; 300 nM pretreatment): almost complete degradation of HPK1; SLP76-S376 phosphorylation (Western blot) (HPK1 [5]; 300 nM pretreatment): attenuation of SLP76-S376 phosphorylation; Maximal enhancement of TCR-induced IL-2 and IFN-γ production (human PBMCs): not stronger than that after treatment with Compound 1; EC50 (Jurkat cells; Homo sapiens): ~200 nM |
| Cc1cc(-c2cnc3[nH]cc(-c4ccc(C(=O)N(C)C)cc4)c3c2)cc2c1CN(CCC(=O)N1CCN(c3ccc(N4CCC(=O)N(C)C4=O)cc3)CC1)CC2 [Compound 3, N,N-dimethyl-4-(5-(8-methyl-2-(3-(4-(4-(3-methyl-2,4-dioxotetrahydropyrimidin-1(2H)-yl)phenyl)piperazin-1-yl)-3-oxopropyl)-1,2,3,4-tetrahydroisoquinolin-6-yl)-1H-pyrrolo[2,3-b]pyridin-3-yl)benzamide] | resulted in the degradation of HPK1 | 120 nM | did not significantly degrade HPK1 | limited HPK1 degradation | effectively reduced | without significantly affecting HPK1 levels | reduced or almost completely attenuated SLP76-S376 phosphorylation | attenuated SLP76-S376 phosphorylation | enhanced ERK1/2 phosphorylation only in HKO-HPK1.WT Jurkat cells | – | higher | comparable with that induced by Compound 2 | enhanced HepG2 killing ability of PBMCs, but to a less extent than Compound 1 or Compound 2 | – |
